Experiments:
[1] = tested on: 253J B-V and 253J B-V cisplatin-resistant cells
[2] = tested on: A549 cells; assay: Colony forming assay, A549; format: cell-based, human
From the text: The plates were placed on ice.

[3] = tested on: HT-29 cells; assay: Colony forming assay, HT-29
[4] = tested on: PARP-1; assay: Western blot of PARP-1 cleavage, HT-29; format: cell-based, human; details: HT-29, 24 h, IC50 and 1/2IC50
Method: (§1) Then, cells were treated with chosen compounds. After 24 h of incubation, monolayer and supernatant were harvested and washed in cold PBS. Cells were centrifuged—monolayer at 1200 rpm for 10 min, supernatant 3500 rpm for 10 min. Pellets were dissolved in RIPA Lysis and Extraction buffer (Bio-Rad) containing Phosphatase Inhibitor Cocktail 3 (Sigma Aldrich) and Protease Inhibitor Cocktail (Sigma Aldrich). Samples were incubated in ice for 30 min and mixed every 10 min. Then, samples were centrifuged at 12,000 rpm for 25 min. Protein concentration in supernatants was measured in triplicate using a Protein Assay (Bio-Rad). Proteins were separated by SDS–polyacrylamide gel electrophoresis. Separating and stacking gels were made of different ratios of water, Tris–HCl pH 6.8 and pH 8.8, 10% SDS (Sigma Aldrich), Acrylamide/bis-acrylamide (Sigma Aldrich), 10% APS (Sigma Aldrich), TEMED (Sigma Aldrich). 7.5% gels were prepared for analysis PARP-1, whereas 12% gels prepared for γ-H2AX. After separation on SDS–polyacrylamide gels, proteins were electroblotted on nitrocellulose membrane in Transfer Buffer (Glycine, Tris, Methanol). Membranes were washed in TBS/0.1% or 0.05% Tween20 solution and blocked in Tris-buffered saline with 5% of non-fated dried milk for 1 h. Membranes were then incubated overnight with primary antibodies—anti-PARP-1 (Cell Signaling Technology), anti-γ-H2A.X (Cell Signaling Technology), anti-β-actin (Cell Signaling Technology) in cold room (6 °C). After incubation, membranes well washed with TBS/Tween solution and blocked with and horseradish peroxidase-conjugated secondary antibodies (Bio-Rad) for 1 h in cold room. Protein bands were visualized using ECL™ Prime Western Blotting Detection Reagents (Sigma Aldrich) Healthcare and Carestream Kodak autoradiography GBX fixer/replenisher (Sigma Aldrich) with Developer and Replenisher (Carestream) in the dark room. Results were obtained on Autoradiography Film (Santa Cruz Biotechnology). Densitometric analysis was performed by using a software program (ImageJ). […]

[5] = tested on: HT-29 cells; assay: Apoptosis assay by annexin-V/PI double staining, HT-29; format: cell-based, human; details: HT-29, 24 h, compound at IC50 (1i 5.90 µM); control 8.62%
Method: Compounds were added to the cells and further incubated for 24 h. After treatment, monolayer and supernatant cells were harvested, washed with PBS and centrifuged (monolayer at 1200 rpm for 10 min, supernatant at 3500 rpm for 10 min). Then, cells were re-suspended in binding buffer and stained with 2 µL of Annexin-V and […] of PI (ANNEXIN-V—FITC Apoptosis Detection Kit, Immunostep) in the dark for 10 min at room temperature. Cells were analysed by BD Accuri C6 Flow Cytometry (Becton–Dickinson). Etoposide (Calbiochem) was used as a reference drug. Experiments were done in triplicates.

[6] = tested on: HT-29 cells; assay: Reactive oxygen species assay (DCFH-DA), HT-29; format: cell-based, human; details: compound at IC50 24 h plus H2O2, H2O2 only 1.88-fold
Method: After incubation, compounds were added into the wells and further incubated for next 24 h. H2O2 (1 mM) was added at 22nd h of incubation with compounds. H2O2 was used as a positive control. 30 min before the analysis, DCFH-DA (20 µM) was added to the wells. After incubation, cells were harvested and washed in PBS. Then, cells were centrifuged at 1500 rpm for 10 min. Medium was removed and cells were suspended in PBS. Analysis was performed on BD Accuri C6 Flow Cytometry (Becton–Dickinson).

[7] = tested on: γ-H2AX; assay: Western blot of γ-H2AX, HT-29; format: cell-based, human; details: HT-29, 24 h, IC50 and 1/2IC50
Method: as §1

[8] = tested on: A549 cells; assay: Cell cycle analysis (PI, flow cytometry), A549; format: cell-based, human; details: A549, 24 h, compound at 1/2IC50 (1i 7.44 µM)
Method: Then, compounds were added into the wells and cells were further incubated for 24 h. After incubation, monolayer and supernatant cells were harvested and washed in PBS. Then, cells were centrifuged (monolayer—1200 rpm for 10 min, supernatant 3500 rpm for 10 min) and fixed in cold 70% ethanol. Pellets were kept at 4 °C for at least 2 h. Prior to analysis, cells were centrifuged and re-suspended in RNAsi (type 1-A; Sigma Aldrich)—PBS working solution (200 µg/mL). Samples were incubated at 37 °C for 10 min. At the end, 3 µL of 2 mg/mL propidium iodide (PI) (Sigma Aldrich) solution was added to each sample. Samples were kept in the dark prior to analysis. Analysis was performed on BD Accuri C6 Flow Cytometry (Becton–Dickinson). Etoposide (Calbiochem) was used as a reference drug. Experiments were done in triplicates.

[9] = tested on: SH-SY5Y cells; assay: Cytoprotection against rotenone/oligomycin A, co-incubation, MTT; format: cell-based, human; details: co-incubation with rotenone/oligomycin A, 0.001 µM
Method: In the co-incubation assay, compounds and mixture of R/O were incubated together for 24 h. […] It turned out that none of the compounds (apart from 1i at the concentration of 0.001 µM and cytoprotection of 2.99%) had cytoprotective properties in the whole range of concentrations (Fig. 17). Compounds were not able to capture free radicals; therefore they cannot be classified as free-radical scavengers.

Compound | Cytotoxic effect on cisplatin-resistant versus non-resistant 253J B-V cells (in words) [1] | Number of colonies expressed as percent of control number ([2]; compound at 2xIC50) [%] | Number of colonies expressed as percent of control number ([3]; compound at 1/2IC50) [%] | Number of colonies expressed as percent of control number ([3]; compound at 2xIC50) [%] | Number of colonies expressed as percent of control number ([3]; compound at IC50) [%] | Cleaved PARP-1 (89 kDa) level (in words) [4] | Total apoptotic cells [5] [%] | Increase in ROS level (DCF fluorescence) in comparison with non-treated control [6] [fold] | γ-H2AX protein level / DNA damage (in words) [7] | Cells in G2/M phase [8] [%] | Cells in S phase [8] [%] | Cells in G0/G1 phase ([8]; control 51.74%) [%] | Cytoprotection [9] [%] | Number of colonies expressed as percent of control number ([2]; compound at 1/2IC50) [%] | Number of colonies expressed as percent of control number ([2]; compound at IC50) [%]
O=C(NCCCNc1c2c(nc3ccccc13)CCCC2)c1ccccc1I [Compound 1b] | resistant cells were more sensitive | 3.55 |  |  |  |  |  |  |  |  |  |  |  |  | 
O=C(NCCCCNc1c2c(nc3ccccc13)CCCC2)c1ccccc1I [Compound 1c] | resistant cells were more sensitive |  | 10.06 | 0 | 4.38 | lower apoptosis at IC50 concentrations | 12.96 | 1.83 | lowest effect on DNA damage |  |  |  |  |  | 
O=C(NCCCCNc1c2c(nc3ccccc13)CCCC2)c1ccc(I)cc1 [Compound 1i] |  | 0 |  |  |  | highest PARP-1 cleavage | 11.80 | 1.85 | strongest H2AX phosphorylation | 11.31 | 12.76 | 75.93 | 2.99 | 39.47 | 4.70
